From patent US7868003B2, “Substituted 4-phenyltetrahydroisoquinolines, pharmaceutical compositions comprising them and therapeutic methods for their use” (Sanofi-Aventis, priority 2005, dated 2011)
Structures can show the parent of a compound that is named as a salt.

What follows are compounds tested against T1, sodium-proton exchanger subtype 3 (NHE3) (Homo sapiens, UniProt P48764) (assay: recovery of intracellular pH (pHi) of LAP1 cells stably expressing NHE3 after acidification (BCECF, FLIPR)). Settings: pH recovery in percent of maximum recovery, XLFit, read-out: IC50 (inhibitory action on the NHE3).
T1 construct: expressed in transfected cells
T1 sequence (P48764 26-834): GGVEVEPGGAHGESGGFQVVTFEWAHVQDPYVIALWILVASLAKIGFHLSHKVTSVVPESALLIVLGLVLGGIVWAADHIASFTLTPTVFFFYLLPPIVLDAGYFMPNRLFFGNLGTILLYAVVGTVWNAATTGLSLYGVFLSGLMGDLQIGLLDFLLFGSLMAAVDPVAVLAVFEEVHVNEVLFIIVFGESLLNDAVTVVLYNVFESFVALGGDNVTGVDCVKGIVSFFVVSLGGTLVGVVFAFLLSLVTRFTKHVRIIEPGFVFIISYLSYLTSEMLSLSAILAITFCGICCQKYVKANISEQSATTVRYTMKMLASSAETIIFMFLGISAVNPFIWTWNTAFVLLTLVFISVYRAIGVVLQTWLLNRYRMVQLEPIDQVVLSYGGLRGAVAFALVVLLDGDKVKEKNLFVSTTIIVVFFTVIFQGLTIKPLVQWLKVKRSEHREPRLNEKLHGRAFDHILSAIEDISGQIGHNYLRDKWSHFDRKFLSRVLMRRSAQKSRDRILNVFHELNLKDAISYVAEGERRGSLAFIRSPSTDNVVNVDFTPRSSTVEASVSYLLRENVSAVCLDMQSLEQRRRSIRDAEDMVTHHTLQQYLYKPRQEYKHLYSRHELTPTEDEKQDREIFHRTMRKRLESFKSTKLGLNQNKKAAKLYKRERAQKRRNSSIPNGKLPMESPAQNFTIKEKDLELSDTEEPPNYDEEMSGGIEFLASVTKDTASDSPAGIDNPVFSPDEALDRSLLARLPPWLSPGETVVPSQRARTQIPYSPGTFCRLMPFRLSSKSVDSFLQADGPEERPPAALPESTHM
Assay type: cell-based
Experimental: In this test, the recovery in the intracellular pH (pHi) of LAP1 cells, which stably express the sodium-proton exchanger subtype 3 (NHE3), after an acidification was determined. This recovery sets in even under bicarbonate-free conditions in the case of functioning NHE3. To this end, the pHi was determined with the pH-sensitive fluorescent dye BCECF (Molecular Probes, Eugene, Oreg., USA; the precursor BCECF-AM is used). The cells were first incubated with BCECF (5 μM BCECF-AM) in NH4Cl buffer (NH4Cl buffer: 115 mM cholineCl, 20 mM NH4Cl, 5 mM KCl, 1 mM CaCl2, 1 mM MgCl2, 20 mM Hepes, 5 mM glucose; a pH of 7.4 is established with 1 M KOH). The intracellular acidification was induced by washing the cells incubated in NH4Cl buffer with NH4Cl-free buffer (133.8 mM choline chloride, 4.7 mM KCl, 1.25 mM CaCl2, 1.25 mM MgCl2, 0.97 mM K2HPO4, 0.23 mM KH2PO4, 5 mM Hepes, 5 mM glucose; a pH of 7.4 is established with 1 M KOH). After the washing operation, 90 μl of the NH4Cl-free buffer were left on the cells. The pH recovery was started by the addition of 90 μl of Na^+-containing buffer (133.8 mM NaCl, 4.7 mM KCl, 1.25 mM CaCl2, 1.25 mM MgCl2, 0.97 mM Na2HPO4, 0.23 mM NaH2PO4, 10 mM Hepes, 5 mM glucose; a pH of 7.4 is established with 1 M NaOH) in the analytical instrument (FLIPR, “Fluorometric Imaging Plate Reader”, Molecular Devices, Sunnyvale, Calif., USA). The BCECF fluorescence was determined at an excitation wavelength of 498 nm and the FLIPR emission filter 1 (band gap from 510 to 570 nm). The subsequent changes in fluorescence were registered for two minutes as a measure of the pH recovery. For the calculation of the NHE3-inhibitory potential of the tested substances, the cells were tested first in buffers in which full pH recovery, or none at all, took place. For full pH recovery (100%), the cells were incubated in Na^+-containing buffer (see above), and Na^+-free buffer for the determination of the 0% value (see above). The substances to be tested were made up in Na^+-containing buffer. The recovery in the intracellular pH at each tested concentration of a substance was expressed in percent of the maximum recovery. From the percentages of the pH recovery, the IC50 value of the particular substance for the NHE3 was calculated by means of the program XLFit (idbs, Surrey, UK).

Compound	IC50
CSCCC1NC(=O)N(c2ccccc2[C@@H]2CN(C)Cc3c(Cl)cc(Cl)cc32)C1=O (mixture of isomers) [Example 57, (R and S)-3-[2-((R)-6,8-Dichloro-2-methyl-1,2,3,4-tetrahydroisoquinolin-4-yl)phenyl]-5-(2-methylsulfanylethyl)imidazolidine-2,4-dione trifluoroacetic acid salt]	1400 nM
CN1Cc2c(Cl)cc(Cl)cc2[C@H](c2cccc(N3C(=O)CNC3=O)c2)C1 [Example 4, 3-[3-((S)-6,8-Dichloro-2-methyl-1,2,3,4-tetrahydroisoquinolin-4-yl)phenyl]-imidazolidine-2,4-dione hydrochloride]	129 nM
CN1Cc2c(Cl)cc(Cl)cc2[C@H](c2ccccc2N2C(=O)CCC2=O)C1 [Example 7, 1-[2-((R)-6,8-Dichloro-2-methyl-1,2,3,4-tetrahydroisoquinolin-4-yl)phenyl]-pyrrolidine-2,5-dione hydrochloride]	39 nM
CN1Cc2c(Cl)cc(Cl)cc2C(c2ccc(N3CCNS3(=O)=O)cc2)C1 (stereo not drawn) [Example 8, 6,8-Dichloro-4-[4-(1,1-dioxo-1-λ^6-[1,2,5]thiadiazolidin-2-yl)phenyl]-2-methyl-1,2,3,4-tetrahydroisoquinoline]	2590 nM
CN1Cc2c(Cl)cc(Cl)cc2[C@H](c2cccc(N3C(=O)C=CC3=O)c2)C1 [Example 10]	47 nM
CN1Cc2c(Cl)cc(Cl)cc2[C@H](c2ccc(N3C(=O)CCC3=O)cc2)C1 [Example 14]	119 nM
CN1Cc2c(Cl)cc(Cl)cc2[C@H](c2ccc(N3C(=O)CCCC3=O)cc2)C1 [Example 16]	222 nM
CC1CC(C)C(=O)N(c2ccccc2[C@@H]2CN(C)Cc3c(Cl)cc(Cl)cc32)C1=O (stereo partly drawn) [Example 29]	1200 nM
CN1Cc2c(Cl)cc(Cl)cc2[C@@H](c2ccccc2N2C(=O)CCC2=O)C1 [Example 34]	29200 nM
CN1Cc2c(Cl)cc(Cl)cc2[C@H](c2ccccc2N2CCCC2=O)C1 [Example 35, 1-[2-((R)-6,8-Dichloro-2-methyl-1,2,3,4-tetrahydroisoquinolin-4-yl)phenyl]-pyrrolidin-2-one trifluoroacetate]	82 nM
CN1Cc2c(Cl)cc(Cl)cc2[C@H](c2cccc(N3CCCCC3=O)c2)C1 [Example 38, 1-[3-((S)-6,8-Dichloro-2-methyl-1,2,3,4-tetrahydroisoquinolin-4-yl)phenyl]-piperidin-2-one]	461 nM
CN1Cc2c(Cl)cc(Cl)cc2[C@H](c2ccccc2-n2cc[nH]c2=O)C1 [Example 40, 1-[2-((R)-6,8-Dichloro-2-methyl-1,2,3,4-tetrahydroisoquinolin-4-yl)phenyl]-1,3-dihydroimidazol-2-one hydrochloride]	131 nM
CN1Cc2c(Cl)cc(Cl)cc2[C@H](c2ccccc2N2C(=O)CSC2=O)C1 [Example 42, 3-[2-((R)-6,8-Dichloro-2-methyl-1,2,3,4-tetrahydroisoquinolin-4-yl)phenyl]-thiazolidine-2,4-dione]	69 nM
CN1Cc2c(Cl)cc(Cl)cc2[C@H](c2ccccc2N2C(=O)COC2=O)C1 [Example 43, 3-[2-((R)-6,8-Dichloro-2-methyl-1,2,3,4-tetrahydroisoquinolin-4-yl)phenyl]-oxazolidine-2,4-dione]	49 nM
CN1Cc2c(Cl)cc(Cl)cc2[C@H](c2ccccc2N2C(=O)COCC2=O)C1 [Example 44, 4-[2-((R)-6,8-Dichloro-2-methyl-1,2,3,4-tetrahydroisoquinolin-4-yl)phenyl]-morpholine-3,5-dione trifluoroacetic acid salt]	220 nM
CN1Cc2c(Cl)cc(Cl)cc2[C@H](c2ccccc2N2CCOC2=O)C1 [Example 46, 3-[2-((R)-6,8-Dichloro-2-methyl-1,2,3,4-tetrahydroisoquinolin-4-yl)phenyl]-oxazolidin-2-one]	220 nM
CN1Cc2c(Cl)cc(Cl)cc2[C@H](c2ccccc2N2CCCS2(=O)=O)C1 [Example 51, (R)-6,8-Dichloro-4-[2-(1,1-dioxo-1-λ^6-isothiazolidin-2-yl)phenyl]-2-methyl-1,2,3,4-tetrahydroisoquinoline hydrochloride]	141 nM
O=C1CCC(=O)N1c1ccccc1[C@@H]1CNCc2c(Cl)cc(Cl)cc21 [Example 52, 1-[2-((R)-6,8-Dichloro-1,2,3,4-tetrahydroisoquinolin-4-yl)phenyl]-pyrrolidine-2,5-dione trifluoroacetic acid salt]	12300 nM
CN1CC(=O)N(c2ccccc2[C@@H]2CN(C3CC3)Cc3c(Cl)cc(Cl)cc32)C1=O [Example 55, 3-[2-((R)-6,8-Dichloro-2-cyclopropyl-1,2,3,4-tetrahydroisoquinolin-4-yl)-phenyl]-1-methylimidazolidine-2,4-dione hydrochloride]	120 nM
CC(C)CC1NC(=O)N(c2ccccc2[C@@H]2CN(C)Cc3c(Cl)cc(Cl)cc32)C1=O (stereo partly drawn) [Example 58]	7400 nM
CN1Cc2c(Br)cc(Cl)cc2C(c2ccccc2N2CCCC2=O)C1 (stereo not drawn) [Example 64, 1-[2-(8-Bromo-6-chloro-2-methyl-1,2,3,4-tetrahydroisoquinolin-4-yl)-phenyl]pyrrolidin-2-one]	250 nM
